# Measured values from ChEMBL document CHEMBL5661955, “ASAP - In vitro cytotoxicity” (2024).
# How the values were obtained:
# [1] = Functional CPE-based assay to measure dose dependent changes in cell viability from drug treatment in Vero E6 miRFP670 cells. Cells are treated with antiviral candidates that have been serially diluted. Cytotoxicity is reported via analysis of MTS assays in uninfected cells. The assay has been performed by KU Leuven.; assay type: toxicity, Vero C1008; settings: chlorocebus sabaeus, Vero E6 miRFP670 cells
# [2] = Functional assay to measure dose dependent changes in cell viability from drug treatment in Vero E6 miRFP670 cells (cotreated with P-gp inhibitor, CP100356) that are infected with Dengue virus type 2 New Guinea C. […] Cytotoxicity is reported via via analysis of DAPI count using high-content imager. The assay has been performed by KU Leuven.; assay type: toxicity, cell-based, Vero C1008; settings: chlorocebus sabaeus, with CP100356 (P-gp inhibitor, concentration not stated); p-gp concentration 500 nM
SMILES,CC50 [1],CC50 [2]
O=C(Nc1ccc2c(c1)CNCC2)c1cc(Cl)cc2[nH]ncc12,> 50 µM,
CC(C)(C)c1cc(Br)cc(C(=O)Nc2ccc3c(c2)CNC3)c1,5.77 µM,
CN1Cc2ccc(NC(=O)c3cc(Cl)cc4[nH]ncc34)cc2C1,> 50 µM,
O=C(Nc1ccc2c(c1)CNC2)c1cc(Br)cc2ccccc12,11.4 µM,
C=C1C[C@H](c2cc(Cl)cc(NC(=O)OCc3ccccc3)c2)[C@@H](c2cccc(-c3nn[nH]n3)c2)C1,5.72 µM,7.56 µM
O=C(Nc1ccc2c(c1)CNC2)c1cc(Cl)cc2c1CCC2,18.4 µM,
C=CC[C@H](Nc1ccc(-c2nn[nH]n2)cc1)c1cc(Cl)cc(NC(=O)OCc2ccccc2)c1,46.2 µM,10.7 µM
CCCNC(=O)[C@H](Nc1cccc(-c2nn[nH]n2)c1)c1cc(Cl)cc(NC(=O)OCc2ccccc2)c1,> 50 µM,> 50 µM
CC(C)c1cc(Br)cc(C(=O)Nc2ccc3c(c2)CNC3)c1,11.5 µM,
O=C(Nc1ccc2c(c1)CNC2)c1cc(Br)cc2c1OCO2,23 µM,
O=C(Nc1ccc(C2CNC2)cc1)c1cc(Cl)cc2[nH]ncc12,> 50 µM,> 50 µM
Cn1ncc2c(C(=O)Nc3ccc4c(c3)CNC4)cc(Br)cc21,> 50 µM,> 50 µM
NCc1cc(/C=C/C(=O)O)cc(NC(=O)c2cc(Cl)cc(NC(=O)OCc3ccccc3)c2)c1,> 50 µM,15.7 µM
C=CC[C@H](Nc1cc(Cl)cc(NC(=O)OCc2ccccc2)c1)c1ccc(-c2nn[nH]n2)cc1,14.6 µM,7.62 µM
NCc1cccc(NC(=O)c2cc(Cl)cc3c2cnn3CC2CC2)c1,20.7 µM,24.1 µM
N[C@H]1Cc2ccc(NC(=O)c3cc(Cl)cc(NC(=O)OCc4ccccc4)c3)cc2C1,2.82 µM,4.15 µM
O=C(NS(=O)(=O)C1CC1)c1cc(Cl)ccc1NS(=O)(=O)c1ccc(Oc2ccccc2Cl)cc1,> 50 µM,> 50 µM

SMILES,CC50 [1],CC50 [2]
NCc1cccc(NC(=O)[C@H](NC(=O)OCc2ccccc2)c2ccc(Br)c(Cl)c2)c1,10 µM,13.4 µM
O=C(Nc1cc(Cl)cc(-c2ccc3[nH]nc(C(=O)O)c3c2)c1)OCc1ccccc1,> 50 µM,13.6 µM
NCc1cccc(NC(=O)c2cc(Cl)cc(C(N)=O)c2)c1,> 50 µM,> 50 µM
NCc1cc(NC(=O)c2cc(Cl)cc(NC(=O)OCc3ccccc3)c2)cc([C@@H]2C[C@H]2C(=O)O)c1,9.99 µM,21.8 µM
COc1cccc(-c2ccc([C@@H](NC(=O)OCc3ccccc3)C(=O)Nc3cccc(CN)c3)cc2)c1,6.76 µM,23.1 µM
CNC(=O)[C@H](Nc1cc(CN)cc(C(=O)O)c1)c1cc(Cl)cc(C2CC2)c1,> 50 µM,> 50 µM
O=C(Nc1cc(Cl)cc([C@H]2C[C@@H]2c2cccc(C3CCNCC3)c2)c1)OCc1ccccc1,1.23 µM,3.44 µM
CCNC(=O)Nc1cc(Cl)cc(C(=O)Nc2ccc3c(c2)CNCCO3)c1,> 50 µM,35.3 µM
C[C@@]1(c2cccc(CN)c2)C[C@H]1c1cc(Cl)cc(NC(=O)OCc2ccccc2)c1,2.61 µM,6.46 µM
CCNC(=O)Nc1cc(Cl)cc(C(=O)Nc2cccc(CN)c2)c1,> 50 µM,> 50 µM
OCC#C[C@H](Nc1ccc2c(c1)CNC2)c1cc(Cl)cc2[nH]ncc12,> 50 µM,> 50 µM
O=C(O)c1cc(Cl)c(F)cc1S(=O)(=O)Nc1ccc(Oc2ccccc2Cl)cc1,> 50 µM,> 50 µM
NCc1cccc(NC(=O)[C@@H](NC(=O)OCc2ccccc2)c2ccc(-c3cc4cccnc4s3)cc2)c1,34.7 µM,> 50 µM
NCc1cccc(NC(=O)[C@H](NC(=O)OCc2ccccc2)C2CCC(c3ccccc3)CC2)c1 (some centres undefined),4.58 µM,11.5 µM
CNC(=O)[C@H](Nc1cc(CN)cc(C(=O)O)c1)c1cc(Cl)cc(NC(=O)OCc2ccccc2)c1,> 50 µM,> 50 µM
O=C(Nc1cc(Cl)cc(C(=O)Nc2ccc3c(c2)CNCC3)c1)OCc1ccccc1,2.85 µM,3.27 µM
